From US8076486B2, “Heteroaryl-substituted arylaminopyridine derivatives as MEK inhibitors” (Merck Serono S.A., priority 2006, dated 2011)

Assays:
human MEK1 = human MEK1 (Homo sapiens, UniProt Q02750, S218E/S222E); test: MEK-1 Enzyme Assay (LANCE-HTRF); format: biochemical; conditions: MEK-1 EE, ERK-2K52A substrate, 9 uM ATP, 1.5 hrs
Procedure: Assay 1: MEK-1 Enzyme Assay (LANCE-HTRF)
Inhibition of human MEK1 kinase activity was monitored with a homogenous, fluorescence-based assay. The assay uses time resolved fluorescence resonance energy transfer to probe for phosphorylation of ERK1 by MEK1. The detailed procedure is described in the following:
Constititutively active MEK-1 EE (150 ng/well) and ERK-2K52A (110 ng/well) were incubated in black, 384 well Optiplates (Perkin Elmer) for 1.5 hrs at room temperature, in the presence of increasing concentrations of inhibitors. The total reaction volume was 50 ul. The inhibitors were serial diluted in kinase buffer (9 uM ATP, 50 mM Tris-Hcl pH 8.0, 10 mM MgCl2, 1 mM DTT and 100 uM Na3VO4), to a final concentration of 1% DMSO. At the end of the incubation, the enzyme reaction was quenched by adding 50 ul of assay buffer containing 50 mM Tris-Hcl, 50 mM EDTA, 0.1% BSA and a mixture of 1.25 ug/mL europium labeled anti-phosphotyrosine mAb (Perkin Elmer) and 5 ug/mL of allophycocyanin labeled anti-GST antibody (CIS-US). Plates were agitated on a plate shaker for 30 minutes and the phosphorylation of the ERK-2K52A substrate was measured by homogeneous time resolved fluorescence (HTRF) at 340 nm excitation and […] emission filters on the VICTOR V fluorescence plate reader. Phosphorylation is expressed as a ratio of 665 nM signal×10,000/615 nM signal. To assess the inhibitory potential of the compounds, IC50-values were determined.

[1] = tested on: human melanoma A375 cells; test: Tumor Cell Proliferation Assay (ATP Lite), A375; format: cell-based; conditions: A-375, 96 h, 4 days, ATPlite
Procedure: (§1) Assay 2: Tumor Cell Proliferation Assays (ATP Lite)
(§2) Murine colon C26 (1500 cells/well), human melanoma A375 (2000 cells/well), or human pancreatic MiaPaCa-2 cells (2000 cells/well) were plated in white, 96 well plates (Corning) in growth media (DMEM with 10% fetal bovine serum, 2 mM glutamine for C26 and MiaPaCa-2, and RPMI with 10% fetal bovine serum, 2 mM glutamine for A375) and cultured overnight at 37° C. in a humidified, 5% CO2 incubator. Inhibitors were serially diluted in 100% DMSO and subsequently added to the cells, in growth media, to reach a final concentration of 0.25% DMSO. The cells were incubated for 4 days in the presence of the test compounds and the proliferation was quantitated using the ATPlite cell proliferation kit (Packard).

A375 Xenograft = test: Tumor Growth Inhibition in A375 Xenograft Studies (Malignant Melanoma Model); format: in vivo, nude (nu/nu) mice; conditions: A375 xenograft in male nude mice, to Day 14
Procedure: In vivo Efficacy Evaluation: Tumor Growth Inhibition in A375 Xenograft Studies (Malignant Melanoma Model)
Male nude (nu/nu) mice (100 total, 24-26 g body wt) were purchased from Charles River Laboratories. Animals were injected subcutaneously above the right foreleg with 5×10^6 A375 cells in 100 ul of PBS. Tumors were measured with calipers 4, 7, 11 and 14 days after cells were implanted. Tumor length (l) and width (w) were measured and tumor volume was calculated with the equation l*w^2/2. At 16 days after cancer cells were implanted, tumors had reached an average volume of 93 mm^3, at which time the animals were sorted into 6 groups so that each group had the same mean tumor volume. The vehicle used for dosing the compound in suspension was 10% Tween 80 in water.
Treatments began on the afternoon of the 16th day after cancer cell injections, which was designated as Day 0. Tumor volume and body weight was measured for each animal 3 times per week until Day 14. On Day 14, all animals were euthanized, tumors removed and weighted.

Murine colon C26 cells = test: Tumor Cell Proliferation Assay (ATP Lite), C26; format: cell-based; conditions: Mus musculus, 96 h, 4 days, ATPlite
Procedure: as §1, §2

[2] = tested on: human pancreatic MiaPaCa-2 cells; test: Tumor Cell Proliferation Assay (ATP Lite), MiaPaCa-2; format: cell-based; conditions: MIA PaCa-2, 96 h, 4 days, ATPlite, read-out: MiaPaCa2 cell proliferation IC50
Procedure: as §1, §2

Sequence of human MEK1 (Q02750 whole entry S218E/S222E): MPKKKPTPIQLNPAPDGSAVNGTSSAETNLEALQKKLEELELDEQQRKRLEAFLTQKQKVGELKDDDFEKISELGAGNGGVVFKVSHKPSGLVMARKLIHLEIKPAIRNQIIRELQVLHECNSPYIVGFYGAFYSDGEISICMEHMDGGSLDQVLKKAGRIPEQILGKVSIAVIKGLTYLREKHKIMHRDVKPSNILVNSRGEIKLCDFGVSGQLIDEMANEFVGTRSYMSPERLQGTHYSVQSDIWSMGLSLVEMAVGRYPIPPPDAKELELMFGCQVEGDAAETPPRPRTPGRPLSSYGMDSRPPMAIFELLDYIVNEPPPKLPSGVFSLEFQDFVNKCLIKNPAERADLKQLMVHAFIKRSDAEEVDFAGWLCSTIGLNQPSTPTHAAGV

Row | SMILES | IC50 (human MEK1) | IC50 [1] | IC50 (Murine colon C26 cells) | IC50 [2] | effect on tumor growth (A375 Xenograft; dose of 0.5 mg/kg) | effect on tumor growth (A375 Xenograft; dose of 10 mg/kg)
1 | Nc1nnc(-c2ccncc2Nc2ccc(I)cc2F)o1 [Example 2, [4-(5-Amino-[1,3,4]oxadiazol-2-yl)-pyridin-3-yl]-(2-fluoro-4-iodo-phenyl)-amine] | ≤ 3 µM | ≤ 3000 nM | ≤ 3000 nM | ≤ 3000 nM | significant tumor growth inhibition | tumor regression
2 | Cn1c(-c2ccncc2Nc2ccc(I)cc2F)n[nH]c1=O [Example 55, 5-[3-(2-Fluoro-4-iodo-phenylamino)-pyridin-4-yl]-4-methyl-2,4-dihydro-[1,2,4]triazol-3-one] | ≤ 3 µM | ≤ 3000 nM | ≤ 3000 nM | ≤ 3000 nM | – | –
3 | Fc1cc(I)ccc1Nc1cnccc1-c1ncon1 [Example 56, (2-Fluoro-4-iodo-phenyl)-(4-[1,2,4]oxadiazol-3-yl-pyridin-3-yl)-amine] | ≤ 3 µM | 3000 to 25000 nM | > 25000 nM | 3000 to 25000 nM | – | –
4 | Nc1nnc(-c2c(Nc3ccc(I)cc3F)cncc2-c2ccccc2Cl)o1 [Example 57, [4-(5-Amino-[1,3,4]oxadiazol-2-yl)-5-(2-chloro-phenyl)-pyridin-3-yl]-(2-fluoro-4-iodo-phenyl)-amine] | ≤ 3 µM | ≤ 3000 nM | ≤ 3000 nM | ≤ 3000 nM | – | –
5 | Nc1nnc(-c2c(Nc3ccc(I)cc3F)cncc2-c2ccccc2F)o1 [Example 58, [4-(5-Amino-[1,3,4]oxadiazol-2-yl)-5-(2-fluoro-phenyl)-pyridin-3-yl]-(2-fluoro-4-iodo-phenyl)-amine] | ≤ 3 µM | ≤ 3000 nM | ≤ 3000 nM | ≤ 3000 nM | – | –
6 | Fc1cc(I)ccc1Nc1cncc(-c2ccccc2F)c1-c1c[nH]nn1 [Example 60, (2-Fluoro-4-iodo-phenyl)-[5-(2-fluoro-phenyl)-4-(1H-[1,2,3]triazol-4-yl)-pyridin-3-yl]-amine] | ≤ 3 µM | ≤ 3000 nM | ≤ 3000 nM | ≤ 3000 nM | – | –
7 | Fc1cc(I)ccc1Nc1cnccc1-c1nnn[nH]1 [Example 62, N-(2-fluoro-4-iodophenyl)-4-(1H-tetrazol-5-yl)pyridin-3-amine] | ≤ 3 µM | > 25000 nM | > 25000 nM | > 25000 nM | – | –
8 | C[Si](C)(C)c1[nH]nnc1-c1ccncc1Nc1ccc(I)cc1F [Example 63, N-(2-fluoro-4-iodophenyl)-4-[5-(trimethylsilyl)-1H-1,2,3-triazol-4-yl]pyridin-3-amine] | ≤ 3 µM | ≤ 3000 nM | ≤ 3000 nM | ≤ 3000 nM | – | –

Second part, led by results:

Row | IC50 (human MEK1) | IC50 [1] | IC50 (Murine colon C26 cells) | IC50 [2] | SMILES | effect on tumor growth (A375 Xenograft; dose of 0.5 mg/kg) | effect on tumor growth (A375 Xenograft; dose of 10 mg/kg)
9 | ≤ 3 µM | ≤ 3000 nM | 3000 to 25000 nM | ≤ 3000 nM | Fc1cc(I)ccc1Nc1cnccc1-c1ccn[nH]1 [Example 61, (2-Fluoro-4-iodo-phenyl)-[4-(2H-pyrazol-3-yl)-pyridin-3-yl]-amine] | – | –
10 | ≤ 3 µM | ≤ 3000 nM | ≤ 3000 nM | ≤ 3000 nM | Fc1cc(I)ccc1Nc1cnccc1-c1c[nH]nn1 [Example 64, N-(2-fluoro-4-iodophenyl)-4-(1H-1,2,3-triazol-4-yl)pyridin-3-amine] | – | –
11 | ≤ 3 µM | ≤ 3000 nM | ≤ 3000 nM | ≤ 3000 nM | Fc1cc(I)ccc1Nc1cnccc1-c1cn[nH]c1 [Example 65, (2-Fluoro-4-iodo-phenyl)-[4-(1H-pyrazol-4-yl)-pyridin-3-yl]-amine] | – | –
